Data taken from PMC10541198, “Specific quinone reductase 2 inhibitors reduce metabolic burden and reverse Alzheimer’s disease phenotype in mice” (The Journal of Clinical Investigation, 2023).
“And” between values parts separate entries of the source, which are not always exact repeats. Equal entries are not always repeated.

Key:
[1] = molecular target: T1, QR2 (Homo sapiens, UniProt P16083); test: QR2 activity assay, BNAH fluorescence (standard/primary); format: biochemical; conditions: for IC50: Figure 2D, readout not stated
T1 construct: purchased Sigma-Aldrich
T1 sequence (P16083 1-231): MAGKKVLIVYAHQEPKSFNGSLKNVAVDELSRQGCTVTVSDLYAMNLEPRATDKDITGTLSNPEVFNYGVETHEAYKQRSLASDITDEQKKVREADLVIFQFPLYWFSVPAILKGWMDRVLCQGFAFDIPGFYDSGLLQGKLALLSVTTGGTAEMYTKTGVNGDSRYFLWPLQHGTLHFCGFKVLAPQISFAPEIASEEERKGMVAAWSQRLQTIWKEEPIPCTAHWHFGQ
Text: A drug discovery campaign strategy was initiated to screen compounds for QR2-specific, cell-free inhibition and in vitro activity, followed by SAR optimization (Figure 2A) to achieve highly specific and potent QR2 inhibitor synthesis. In order to establish a varied and chemically amenable starting point, we developed a high-throughput QR2 assay (Supplemental Methods) that we screened against a library with approximately 200,000 compounds. […] Compounds that replicated the initial hit result were then assayed similarly against QR1 to evaluate compound specificity (Figure 2B). From the HTS, a chemically tractable and attractive series of compounds containing a sulfone flanked by an amine and a heterocycle were identified and selected for SAR development (Figure 2C, Supplemental Methods, Supplemental Table 1, and Supplemental Table 2). […]
High Throughput Screen (H TS)
The enzymatic activity of QR 2 (10 nM) was measur ed using menadione (both Sigm a -Aldrich) as subst r at e and dihydro- benzylnicotinamide (BNAH; Tocris) as co-substrate(62). The reaction was performed in 50 mM Tri s HCl, 150 mM NaCl 0.01%Tween- 20 pH=8.5 (Sigma-Aldrich) at r oom tem per atur e. Briefl y, 3 µL of menadione alone (200 µM) or a mixture of menadione and QR2 (200 µM of […]
menadione and 10 nM of QR2) were dispensed in 1536-well black Nunc plates (Thermo-Fisher) using aMultidrop™ Combi Reagent Dispenser (Thermo-Fisher) and pre-incubated with compounds for 10min. BNAH (200µM) was t hen added (3 µL) to the reaction using a BioNex Solutions BNX1536plate washer and the plates were incubated for another 10 min. Fluorescence intensity was followed in a PHERAstar FS multi-mode plate reader (BMG Labtech) us i ng an optic module with excitation at 360 nm and emission at 470 nm. The initial HTS includedapproximately 200,000 compounds at a single concentrationof 5 µM. The chemical libraries used were Selleck Chemicals Bioactives, the Drug-like set from Enamine, HitFinder collection from Maybridge, Spectrum Collection from Microsource, Lopa c from Sigma -Aldrich and the diversity set s from Chem Div and Che m Br idge .
Initial ‘‘hit’’ compounds were defined as causing >30% reduction of enzyme activity. Compounds suspected to be fluorescent were re -assayed in an absorbance assay at 350 nm using the same reaction but in a higher volume (100 µL), in a transparent plate (Greiner Bio- One). ‘‘Hit’’ compounds resulting from both the fluorescence and absorbance assay wer e t ested in a concentration- response, and IC50 values were de t er mi ne d. In parallel, the same concentration response methodologywas appliedin a selectivity assay where QR2 enzymewas replaced byQR1 […]
Chromatography System, with UV/Vis detector 2489, using XBridge® Prep C18 10 μm 10x250 mm […]
was monitored by Wat er s UPLC-MS system: Acquity UPLC® H class with PDA detector, and using […]

[2] = test system: THLE-2 cells; test: ATP depletion cell toxicity assay (CellTiter Glo), 72 h; format: cell-based; conditions: for cell viability, Cell-Titer-Glo (replicates): THLE2, 72 hour, in % (unit assumed); for LD50, cell viability (Cell-Titer-Glo): THLE2 cells, 72 hour incubation
Procedure: H2DCFDA ROS assay was carried out according to established protocols, with some adjustment (Supplemental Methods) ([6]). Cell toxicity was measured via ATP depletion (CellTiter Glo, Promega) in THLE-2 cells (ATCC, CRL-2706), following 72 hours of exposure to the test compounds, and cell viability was assessed using XTT assay (Biological Industries) according to manufacturers protocols. CETSA was performed as previously described ([53]) with some modifications, using QR2 (Santa Cruz, sc-271665) and SOD1 (Santa Cruz, sc-17767) antibodies. SDS-PAGE and immunoblot imaging were carried out as previously described ([55]), using Tubulin (Sigma-Aldrich, SAB4500087), QR2 (Santa Cruz, sc-271665), NDUFA9 (AbCam, ab14713) and CD73 (Cell Signaling Technology, D7F9A) antibodies.
with a 100 µM as upper limit, for 72 h. […]
Cellular The rm a l Shift Assay (CETSA) […]
17767). Analysis of the results wer e done in accordance to Jafari et a l .( 63) us i ng GraphPad Pr i sm software.

IC50 [1] [nM] | Compound | binding affinity to QR2 than to QR1 [1] | specificity to QR2 compared with QR1 [1] | cell viability, Cell-Titer-Glo (replicates) ([2]; inhibitor 3.9e-7 M) | cell viability, Cell-Titer-Glo (replicates) ([2]; inhibitor 7.8e-7 M) | cell viability, Cell-Titer-Glo (replicates) ([2]; inhibitor 1.5625e-6 M) | cell viability, Cell-Titer-Glo (replicates) ([2]; inhibitor 3.125e-6 M) | cell viability, Cell-Titer-Glo (replicates) ([2]; inhibitor 6.25e-6 M) | cell viability, Cell-Titer-Glo (replicates) ([2]; inhibitor 1.25e-5 M) | cell viability, Cell-Titer-Glo (replicates) ([2]; inhibitor 2.5e-5 M) | cell viability, Cell-Titer-Glo (replicates) ([2]; inhibitor 5e-5 M) | cell viability, Cell-Titer-Glo (replicates) ([2]; inhibitor 0.0001 M) | LD50, cell viability (Cell-Titer-Glo) [2] [µM]
30 | Cc1ccc(-c2cn3cccc(C)c3n2)cc1S(=O)(=O)N1CCC(C)CC1 [YB-800] |  |  | 96.3 and 111.4 | 111.0 and 92.8 | 96.0 | 102.0 and 98.8 | 95.3 and 97.2 | 87.5 and 81.6 | 74.8 and 70.3 | 54.4 and 53.1 | 50.5 and 51.2 | 78.401
10 | Cc1ccc(-c2cn3cccc(C)c3n2)cc1S(=O)(=O)N1CCCC1 [YB-808] |  |  | 96.4 and 99.1 | 91.2 and 88.9 | 98.0 and 97.5 | 92.2 and 93.9 | 94.7 and 93.5 | 90.2 and 79.5 | 79.2 and 86.7 | 66.4 and 67.9 | 22.2 and 20.2 | 59.704

Compound | IC50 [1] [nM] | binding affinity to QR2 than to QR1 [1] | specificity to QR2 compared with QR1 [1] | cell viability, Cell-Titer-Glo (replicates) ([2]; inhibitor 3.9e-7 M) | cell viability, Cell-Titer-Glo (replicates) ([2]; inhibitor 7.8e-7 M) | cell viability, Cell-Titer-Glo (replicates) ([2]; inhibitor 1.5625e-6 M) | cell viability, Cell-Titer-Glo (replicates) ([2]; inhibitor 3.125e-6 M) | cell viability, Cell-Titer-Glo (replicates) ([2]; inhibitor 6.25e-6 M) | cell viability, Cell-Titer-Glo (replicates) ([2]; inhibitor 1.25e-5 M) | cell viability, Cell-Titer-Glo (replicates) ([2]; inhibitor 2.5e-5 M) | cell viability, Cell-Titer-Glo (replicates) ([2]; inhibitor 5e-5 M) | cell viability, Cell-Titer-Glo (replicates) ([2]; inhibitor 0.0001 M) | LD50, cell viability (Cell-Titer-Glo) [2] [µM]
Cc1ccc(-c2cn3cccc(C)c3n2)cc1S(=O)(=O)N1CCNCC1 [YB-537] | 3 | more than 6,000 fold | more than 6,000 times | 89.3 and 104.9 and 105.3 | 93.6 and 99.6 and 103.9 | 96.4 and 109.9 and 90.1 | 92.2 and 96.1 and 103.0 | 89.6 and 101.5 and 85.3 | 95.7 and 97.8 and 93.2 | 93.9 and 92.0 and 88.2 | 91.4 and 92.2 | 81.5 and 82.7 and 80.4 | > 100
